Assays:
[1] = tested on: primary human hepatocytes; experiment: Intracellular lipid accumulation after 72 h by fluorescence microscopy, PHH model for NASH, Example 2; assay type: cell-based; conditions: FFA+TNFα; for Lipid Median (median fold change from control): 72 h
Protocol: (§1) PHH from two healthy human donors (Lonza, TRL) were seeded on day 0 at density of 6e04 cells in 96 well optical microplates (Thermofisher) in hepatocyte plating media (William's E medium, WEM) (Gibco) supplemented with 10% heat-inactivated FBS (Atlanta Bio), 2 mM Glutamax (Gibco), and 0.2% Primocin (InVivoGen) and incubated for 6 hours at 37° C., 5% CO2. After 6 hours, cells were washed twice and incubated overnight at 37° C., 5% CO2 with Hepatocytes defined medium (Corning) supplemented with 2 mM Glutamax (Gibco), and 1× Penicillin/Streptomycin. On day 1, cells were washed twice and incubated for 24 h in the hepatocyte culture media in the same conditions described above.
(§2) On day 2, cells were washed twice with DPBS 1× (Gibco) to remove excess amino acids and maintained in pretreatment media (1×HMDB, a defined custom amino acid concentration based on the mean physiological concentrations in blood, in WEM±supplemental amino acids): • a. Amino acid-free WEM (US Biologicals) supplemented with 11 mM Glucose (Sigma), 0.272 mM Sodium Pyruvate (Sigma), 1× P/S (Gibco) and containing 1×HMDB with no supplemental amino acids; or • b. The same media described above 1×HMDB WEM with supplemental amino acid and amino acid combination treatments at various concentrations. Cells were maintained in the defined media (a. & b.) for 24 hours at 37° C., 5% CO2. The HMDB values are published in the Human Metabolome Database (Wishart D S, Tzur D, Knox C, et al., HMDB: the Human Metabolome Database. Nucleic Acids Res. 2007 January; 35 (Database issue):D521-6. 17202168; which is hereby incorporated by reference in its entirety). Co-Treatment with Free Fatty Acids and Amino Acids Combination
(§3) After 24 h pre-treatment, cells maintained in the pretreatment media±supplemental amino acids (section (a. & b.) described above) were exposed to free fatty acids (FFA) at 250 uM with a ratio of 2:1 (Oleate:Palmitate) supplemented with TNF-α (Thermofisher) at 1 ng/ml. Cells were incubated with the FFAs mixture (FFAs+TNF-α)±supplemental amino acids treatments for 24 hours at 37° C., 5% CO2. After 24 hours incubation, media was removed for cytokine analysis and replaced by fresh media containing the same conditions described above (FFAs mixture±supplemental amino acids treatments). Cells were incubated for an additional 48 hours for a total of 72 hours of FFA and TNF-α stimulation. After 72 hours of incubation, media was removed for albumin and urea analysis and the cells were fixed for nuclei and lipid staining.
After 72 hours, cells were washed twice in 100 ul PBS 1× (Gibco), fixed with 4% Paraformaldehyde, and washed twice with PBS 1× (100 ul). After fixation, lipids were stained with HCS LipidTOX Red Neutral (Thermofisher Scientific) diluted 1000× and nuclei were stained with Hoechst 3342 (Life Technologies) diluted to 4 ug/ml. The LipidTOX™ neutral lipid stain has an extremely high affinity for neutral lipid droplets that was detected by fluorescence microscopy using a high content imager (Molecular Devices). Data was normalized to the cell concentration determined by nuclei count. Images were analyzed and total lipid area was calculated using granularity module in MetaXpress 6 software. Data is reported as median fold change from control, statistical analysis was done using t-Test.

Albumin = Albumin secretion after 72 h by ELISA, PHH model, Example 2; assay type: cell-based, human; conditions: FFA+TNFα
Protocol: as §1, §2, §3
Albumin secretion was measured as a functionality test in primary human hepatocytes. Albumin was measured by ELISA (Human Albumin ELISA Quantitation set, Bethyl Laboratories) at 1/200 dilution in the sample diluent (Bethyl Laboratories). Data is reported as median fold change from control, statistical analysis was done using t-Test.

Procollagen III = Procollagen III secretion by ELISA, TGFβ1-stimulated hepatic stellate cells, Example 4; assay type: cell-based, human; conditions: HSC, three donors
Protocol: (§4) Primary human hepatic stellate cells were obtained from Samsara Sciences. Cells from three different donors were grown in Complete HSC Medium to ˜80% confluence in T75 or T150 flasks below passage 10 were seeded into sterile, collagen I coated, 96-well optical plastic microplates (ThermoScientific) and incubated overnight at 37° C., 5% CO2 in a humidified incubator in DMEM with 2% Fetal Bovine Serum and 1% Antimycotic. […] After 24 hours of stimulus, supernatant was removed and used to measure Procollagen III and cells were then washed and fixed with 4% paraformaldehyde for further staining. Procollagen III, an important biomarker of fibrosis was measured by ELISA (Human PCIII Elisa Kit, G-Biosciences) following the manufacturer's recommendations. Fixed cells with 4% paraformaldehyde were permeabilized with 0.1% Triton X-100 then immunostained for alpha SMA and labeled for EdU incorporation.

[2] = tested on: alpha smooth muscle actin (αSMA); experiment: HSC activation by alpha SMA immunostaining, TGFβ1-stimulated hepatic stellate cells; assay type: cell-based, human
Protocol: as §4, with “staining.” for “staining. Procollagen III, an important biomarker of fibrosis was measured by ELISA (Human PCIII Elisa Kit, G-Biosciences) following the manufacturer's recommendations. Fixed cells with 4% paraformaldehyde were permeabilized with 0.1% Triton X-100 then immunostained for alpha SMA and labeled for EdU incorporation.”
Procollagen III, an important biomarker of fibrosis was measured by ELISA (Human PCIII Elisa Kit, G-Biosciences) following the manufacturer's recommendations. Fixed cells with 4% paraformaldehyde were permeabilized with 0.1% Triton X-100 then immunostained for alpha SMA and labeled for EdU incorporation.
Cells were imaged using ImageXpress micro confocal high content imager (Molecular Devices). […] Image analysis was performed using MetaXpress version 6.2.3.733 (Molecular Devices).
Fixed cells immunostained for alpha smooth muscle actin (αSMA) were analyzed and stained area was normalized to total nuclei count. Fold change were calculated relative to the baseline amino acid (1×HMDB) condition stimulated with 3 ng/mL TGFβ1.

Urea = Urea production after 72 h by urea nitrogen (BUN) colorimetric assay, PHH model, Example 2; assay type: cell-based, human; conditions: FFA+TNFα
Protocol: as §1, §2, §3
Urea was measured as an indicator of hepatocytes functionality by urea nitrogen direct assay (StanBio). Cell supernatant was added to the BUN color reagent and BUN acid reagent at 1(color):2(acid) ratio. Incubate the cell supernatant with BUN reagent for 12 min at 100° C. then for 5 min at 4° C. Read absorbance at 520 nm. Data was normalized to the control. Data is reported as median fold change from control, statistical analysis was done using t-Test.

Human CCL2 (MCP-1) = experiment: MCP1 secretion by ELISA after 24 h, PHH model for NASH, Example 2; assay type: cell-based; conditions: FFA+TNFα
Protocol: as §1, §2, §3
Human CCL2 (MCP-1) was measured by ELISA (Human […] DuoSet ELISA, R&D Systems) at 1/20 dilution in 1× Reagent Diluent (Reagent Ancillary Kit 2, R&D Systems). MCP1 data in primary human hepatocytes treated with FFA+TNFα+supplemental amino acids was normalized to 1×HMDB WEM+FFA+TNFα baseline. Data is reported as median fold change from control, statistical analysis was done using t-Test.

[3] = tested on: primary human hepatocytes; experiment: Intracellular triglyceride level after 72 h, colorimetric assay, Example 3; assay type: cell-based; conditions: for triglyceride level (in words): FFAs+TNFα, two healthy donors
Protocol: On day 2, cells were washed twice with DPBS 1× (Gibco) and maintained in: • a. Amino acid-free WEM (US Biologicals) supplemented with 11 mM Glucose (Sigma), 0.272 mM Sodium Pyruvate (Sigma), 1× P/S (Gibco) and containing a defined custom amino acid concentration based on the mean physiological concentrations in blood (1× HMDB WEM (−) supplemental amino acids); or • b. The same media described above 1×HMDB WEM (+) supplemental amino acids treatment dose at a 30× of HMDB amino acid concentration. Cells were maintained in the defined amino acids media (a. & b.) for 24 hours at 37° C., 5% CO2. Co-Treatment with Free Fatty Acids and Various Amino Acids Supplemental Treatments
After 24 h pre-treatment, cells maintained in the same media (a. & b.) described above 1×HMDB±supplemental amino acids were now exposed to free fatty acids (FFA) at 250 uM with a ratio of 2:1 (Oleate:Palmitate) supplemented with TNF-α (Thermofisher) at 1 ng/ml or vehicle. Cells with the FFAs+TNFα mixture±amino acids treatments were incubated for 72 hours at 37° C., 5% CO2 with a media change after the first 24 hours.
After 72 hours, cells were washed once with cold PBS 1× (Gibco), scrapped off and collected into 75 ul of standard diluent (Cayman). Collected cells were vortexed for 1 min at a 2500 rpm speed followed by two times sonication (Elmasonic sonicator) for 1 min each. Supernatants were collected for triglyceride analysis after centrifugation at 1000 rpm for 10 min at 4° C. Intracellular triglyceride level was assessed using triglyceride colorimetric assay kit (Cayman) and following manufacturer's recommendations. Data was normalized to the total amount of protein using Bicinchoninic Acid Protein Assay Kit (Sigma). Data is reported as median fold change from FFAs+TNFα condition, statistical analysis was done using t-Test.

| Structure (SMILES) | lipid accumulation (in words) ([1]; hepatocyte donor 1) | lipid accumulation (in words) ([1]; hepatocyte donor 2) | albumin secretion (in words) (Albumin; hepatocyte donor 1) | albumin secretion (in words) (Albumin; hepatocyte donor 2) | procollagen III secretion (in words) (Procollagen III) | alpha SMA stained area (in words) [2] | urea production (in words) (Urea; hepatocyte donor 1) | urea production (in words) (Urea; hepatocyte donor 2) | MCP1 secretion (in words) (Human CCL2 (MCP-1); hepatocyte donor 1) | MCP1 secretion (in words) (Human CCL2 (MCP-1); hepatocyte donor 2) | triglyceride level (in words) [3] | Lipid Median (median fold change from control) ([1]; donor 1, AA Conc. 20X) | Lipid Median (median fold change from control) ([1]; donor 1, AA Conc. 25X) | Lipid Median (median fold change from control) ([1]; donor 2, AA Conc. 30X) | Triglyceride Level relative to the baseline FFA + TNF, Median ([3]; FFA + TNF, 72 h, two donors, AA Conc 1X, Nac/Car 0 mM) |
| --- | --- | --- | --- | --- | --- | --- | --- | --- | --- | --- | --- | --- | --- | --- | --- |
| C[N+](C)(C)C[C@H](O)CC(=O)[O-] [Car, L-carnitine] | reduced lipid accumulation | reduced lipid accumulation but less than the previously described combinations | did not reduce albumin secretion | reduced albumin secretion | had no impact on procollagen III secretion | reduced the alpha SMA stained area | No changes in urea production | slightly reduced urea production | did not reduce MCP1 secretion | did not affect MCP1 secretion | reduces triglyceride level but the effect was less pronounced than the combinations described previously | – | – | – | – |
| CC[C@H](C)[C@H](N)C(=O)O [I, L-isoleucine] | reduced lipid accumulation | – | did not reduce albumin secretion | – | had no impact on procollagen III secretion | – | No changes in urea production | – | did not reduce MCP1 secretion | – | – | −0.105 | – | – | – |
| CC(C)C[C@H](N)C(=O)O [L, L-leucine] | reduced lipid accumulation | – | decreased albumin production at a higher level than the previously described amino acids | – | had no impact on procollagen III secretion | – | No changes in urea production | – | did not reduce MCP1 secretion | – | – | −0.725 | – | – | – |
| NC(=O)CC[C@H](N)C(=O)O [Q, L-glutamine] | reduced lipid accumulation | – | decreased albumin production at a higher level than the previously described amino acids | – | decreased procollagen III secretion but at a lower extent than LIRNacCar and LIRQNacSCar | – | No changes in urea production | – | did not reduce MCP1 secretion | – | – | −0.588 | – | – | – |
| N=C(N)NCCC[C@H](N)C(=O)O [R, L-arginine] | did not reduce lipid accumulation | – | did not reduce albumin secretion | – | had no impact on procollagen III secretion | reduced the alpha SMA stained area | induced urea production | – | did not reduce MCP1 secretion | – | – | – | – | – | – |
| N[C@@H](CO)C(=O)O [S, L-serine] | reduced lipid accumulation | reduced lipid accumulation but less than the previously described combinations | decreased albumin production at a higher level than the previously described amino acids | reduced albumin secretion | had no impact on procollagen III secretion | – | No changes in urea production | slightly induce urea production | did not reduce MCP1 secretion | did not affect MCP1 secretion | didn't have an impact on triglycerides | – | −0.178 | −0.42 | −0.176 |
| CC(C)[C@H](N)C(=O)O [V, L-Valine] | reduced lipid accumulation | – | decreased albumin production at a higher level than the previously described amino acids | – | had no impact on procollagen III secretion | – | – | – | did not reduce MCP1 secretion | – | – | −0.685 | – | – | – |

— patent US20190388377A1, “COMPOSITIONS AND METHODS FOR THE TREATMENT OF LIVER DISEASES AND DISORDERS” (AXCELLA HEALTH INC., priority 2018, published 2019)
